The record followed here is ChEMBL document CHEMBL1201862, “PubChem BioAssay data set” (2004).

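Dose response: 5 concentrations. Exposure: 48 h. Format: 96-well plates. Endpoint: linear interpolation; highest concentration if not reached. Abbreviation: GI50, concentration required for 50% inhibition of growth.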 Activity calls are given as the source filed them. Rule as the data show it: active = GI50 up to about 1.1 µM and inactive = higher.

Among the test systems are A498; HCT-15; HCC 2998; SN12C; CCRF-CEM; MDA-N; A549; KM12; SR; RXF 393; COLO 205; M14; SK-MEL-28; SK-MEL-2; SF-295; ACHN; SF-539; CAKI-1; SK-OV-3; NCI/ADR-RES.
Holding throughout (test): inhibition of tumour cell growth, NCI panel, 48 h

Turning to `O=C(CCc1ccc(O)c(O)c1)NCCc1cc(O)cc(O)c1`, the GI50 with A498 was > 100 µM (inactive); in the experiment on HCT-15, over 100 µM; in the experiment on HCC 2998 it was > 100 µM (inactive); in the experiment with SN12C it was > 100 µM (inactive); in the experiment on CCRF-CEM, 29.2 µM (inactive); in the experiment with MDA-N, 23.8 µM (inactive). Also, the GI50 in the experiment with A549, in the experiment on KM12, with SR, in the experiment on RXF 393, in the experiment on COLO 205 and in the experiment with M14 was > 100 µM (inactive) each time. Further, the GI50 in the experiment with SK-MEL-28, with SK-MEL-2, in the experiment on SF-295, with ACHN, with SF-539 and in the experiment on CAKI-1 was > 100 µM (inactive) in each case. Further, the GI50 in the experiment with SK-OV-3 and in the experiment with NCI/ADR-RES was > 100 µM (inactive) each time.
On to `O=c1c2c3c(sc2nc2n1sc1nc4sc5c(c4c(=O)n12)CCCC5)CCCC3`, for which the GI50 in the experiment with A498 was > 100 µM (inactive); in the experiment with HCT-15, 62.8 µM; in the experiment with HCC 2998, 36.1 µM (inactive); in the experiment with SN12C, > 87.1 µM (inactive); in the experiment with CCRF-CEM, 24.4 µM (inactive); in the experiment on MDA-N it was > 51.3 µM (inactive). Besides, the GI50 in the experiment on A549 is > 77.1 µM (inactive); with KM12 it was > 89.7 µM (inactive); in the experiment on SR it was 25.8 µM (inactive); with RXF 393, 21 µM (inactive); in the experiment with COLO 205, 26.6 µM (inactive); in the experiment on M14, 98.2 µM (inactive). The GI50 in the experiment with SK-MEL-28 was > 80.5 µM (inactive); in the experiment with SK-MEL-2, > 100 µM (inactive); in the experiment with SF-295, 64.6 µM (inactive); in the experiment on ACHN, 61.5 µM (inactive); in the experiment with SF-539, 56 µM (inactive); with CAKI-1, 19.5 µM (inactive). Besides, the GI50 in the experiment on SK-OV-3 is 99.1 µM (inactive); in the experiment with NCI/ADR-RES it was 32.1 µM (inactive).
For `CCOP(=O)(OCC)/C(F)=C/c1ccccc1`, the GI50 in the experiment with A498 is > 100 µM (inactive); in the experiment on HCT-15, over 100 µM; with HCC 2998 it was > 100 µM (inactive); in the experiment on SN12C it was > 100 µM (inactive); in the experiment with CCRF-CEM, > 100 µM (inactive); with MDA-N, > 100 µM (inactive). Moreover, the GI50 with A549, in the experiment on KM12, in the experiment with SR, with RXF 393, with COLO 205 and in the experiment with M14 was > 100 µM (inactive) throughout. The GI50 in the experiment on SK-MEL-28, with SK-MEL-2, in the experiment with SF-295, in the experiment on ACHN, with SF-539 and in the experiment with CAKI-1 was > 100 µM (inactive) in each case. Further, the GI50 with SK-OV-3 and with NCI/ADR-RES was > 100 µM (inactive) each time.
For the compound `Cc1cn(C2CC(O)C(CO[Si](C)(C)C(C)(C)C)OC2OC(C)C)c(=O)[nH]c1=O` (configuration not stated), the GI50 in the experiment on A498 is > 10 µM (inactive); in the experiment on HCT-15 it was 58.5 µM; in the experiment with HCC 2998 it was 24.5 µM (inactive); in the experiment on SN12C it was 39.6 µM (inactive); with CCRF-CEM it was 36.1 µM (inactive); in the experiment with MDA-N, 36.1 µM (inactive). Besides, the GI50 is 34.1 µM (inactive) with A549; 49.5 µM (inactive) with KM12; 31.2 µM (inactive) in the experiment with SR; 34 µM (inactive) in the experiment on RXF 393; 21.5 µM (inactive) with COLO 205; 34.9 µM (inactive) in the experiment with M14. The GI50 is 41 µM (inactive) with SK-MEL-28; 36 µM (inactive) in the experiment on SK-MEL-2; 65 µM (inactive) in the experiment on SF-295; 50.5 µM (inactive) in the experiment on ACHN; 21.9 µM (inactive) in the experiment on SF-539; 55.2 µM (inactive) in the experiment on CAKI-1. In addition, the GI50 in the experiment with NCI/ADR-RES is 43.1 µM (inactive).
Turning to `N#Cc1c(C#N)c(-c2cccc([N+](=O)[O-])c2)n(-c2ccccc2)c1N`, the GI50 with A498 is 17.8 µM (inactive); with HCT-15, over 100 µM; in the experiment on HCC 2998, > 100 µM (inactive); with SN12C, > 100 µM (inactive); in the experiment with CCRF-CEM, > 100 µM (inactive); in the experiment with MDA-N, > 100 µM (inactive). For the same compound, the GI50 with A549 is 33.8 µM (inactive); in the experiment on KM12, > 100 µM (inactive); in the experiment with SR it was > 100 µM (inactive); with RXF 393, 41.7 µM (inactive); with COLO 205, > 100 µM (inactive); with M14, > 100 µM (inactive). The GI50 in the experiment with SK-MEL-2 was > 100 µM (inactive); with SF-295, 63.2 µM (inactive); with ACHN, > 100 µM (inactive); with SF-539 it was 21.1 µM (inactive); with CAKI-1, 44.4 µM (inactive); in the experiment with SK-OV-3, 96.2 µM (inactive). Further, the GI50 in the experiment on NCI/ADR-RES was > 100 µM (inactive).
Consider `CCN1CCN(c2nc3ccc([N+](=O)[O-])cc3nc2C(=O)c2ccccc2)CC1`, for which the GI50 with A498 was 30.4 µM (inactive); with HCT-15, 12 µM; with HCC 2998 it was 15.3 µM (inactive); in the experiment on SN12C, 16.3 µM (inactive); in the experiment on CCRF-CEM, 2.12 µM (inactive); in the experiment on MDA-N, 18.7 µM (inactive). In addition, the GI50 was 17.6 µM (inactive) with A549; 16.8 µM (inactive) with KM12; 2.47 µM (inactive) in the experiment on SR; 16.7 µM (inactive) with RXF 393; 16.2 µM (inactive) in the experiment on COLO 205; 12.4 µM (inactive) in the experiment on M14. The GI50 is 15.8 µM (inactive) in the experiment with SK-MEL-2; 16.7 µM (inactive) with SF-295; 15.8 µM (inactive) with ACHN; 16.1 µM (inactive) with SF-539; 16.7 µM (inactive) in the experiment with CAKI-1; 14.8 µM (inactive) in the experiment with SK-OV-3. For the same compound, the GI50 in the experiment with NCI/ADR-RES is 14.8 µM (inactive).
`CC(=O)O[C@H]1C[C@H]2[C@@H]([C@H](OC(C)=O)C[C@@H]3CC4(CC[C@@]32C)OOC2(CCCCC2)OO4)[C@@H]2CC[C@H]([C@H](C)CCC(N)=O)[C@@]12C`: the GI50 is 6.64 µM (inactive) in the experiment with A498; 2 µM in the experiment with HCT-15; 3.63 µM (inactive) in the experiment on HCC 2998; 2.14 µM (inactive) in the experiment with SN12C; 1.28 µM (inactive) with CCRF-CEM; 1.95 µM (inactive) in the experiment with MDA-N. The GI50 is 1.19 µM (inactive) with A549; 1.71 µM (inactive) in the experiment with KM12; 0.0787 µM (active) in the experiment with SR; 2.76 µM (inactive) with RXF 393; 1.91 µM (inactive) with COLO 205; 3.33 µM (inactive) in the experiment with M14. Also, the GI50 in the experiment on SK-MEL-28 is 8.93 µM (inactive); in the experiment with SK-MEL-2, 1.78 µM (inactive); in the experiment with SF-295, 3.67 µM (inactive); in the experiment on ACHN it was 1.63 µM (inactive); in the experiment with SF-539 it was 3.13 µM (inactive); in the experiment on CAKI-1 it was 0.63 µM (active). Besides, the GI50 in the experiment with SK-OV-3 was 11.6 µM (inactive); in the experiment on NCI/ADR-RES, 2.2 µM (inactive).
